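Growth conditions: 96-well plates. Treatment: test compound, 48 hours, 5 concentrations. Analysis: linear interpolation between bracketing concentrations; unreached endpoints set to highest concentration. At the GI50, growth is halved.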 Active and inactive are the calls of the source. Rule as the data show it: active = GI50 up to about 1.1 µM and inactive = higher. Where only a bound is given, the exact number is not on record here.

Among the test systems are HCT-15; UO-31; OVCAR-3; M14; HCC 2998; Malme-3M; UACC-62; A549; EKVX; RPMI-8226; KM12; PC-3; COLO 205; MOLT-4; SK-OV-3; OVCAR-5; NCI-H460; SK-MEL-5; SR; SK-MEL-28.
What all share (assay): DTP human tumour cell line panel, 48 h

`CN(C)C(=S)/N=c1\ssc(=S)n1Cc1ccccc1`: the GI50 (commonly the concentration giving 50% growth inhibition) is 0.237 µM in the assay with HCT-15; 0.667 µM (active) in the assay with UO-31; 0.168 µM (active) in the assay with OVCAR-3; 0.301 µM (active) with M14; 0.57 µM (active) in the assay with HCC 2998; 0.243 µM (active) in the assay with Malme-3M. In addition, the GI50 in the assay with UACC-62 was 0.312 µM (active); with A549 it was 0.78 µM (active); in the assay with EKVX, 2.15 µM (inactive); in the assay with RPMI-8226, 0.785 µM (active); with KM12, 0.24 µM (active); in the assay with PC-3, 0.249 µM (active). The GI50 was 0.288 µM (active) in the assay with COLO 205; 0.569 µM (active) with MOLT-4; 0.434 µM (active) with SK-OV-3; 20 µM (inactive) in the assay on OVCAR-5; 0.34 µM (active) with NCI-H460; 0.217 µM (active) in the assay with SK-MEL-5. Besides, the GI50 in the assay with SR is 0.129 µM (active); with SK-MEL-28 it was 0.661 µM (active).

On to `CCC1(CC)C(=O)N(C(=O)c2ccc(C)cc2)N(C(=O)c2ccc(C)cc2)C1=O`, for which the GI50 in the assay on HCT-15 was 32 µM; with UO-31, > 75 µM (inactive); in the assay with OVCAR-3, 17.7 µM (inactive); in the assay with M14, > 75 µM (inactive); in the assay with HCC 2998, > 75 µM (inactive); with Malme-3M, 14.4 µM (inactive). In addition, the GI50 with UACC-62 is > 75 µM (inactive); in the assay with A549, > 75 µM (inactive); in the assay with EKVX, 48.6 µM (inactive); with RPMI-8226 it was 35.4 µM (inactive); with KM12 it was 50.9 µM (inactive); in the assay on PC-3, 59.6 µM (inactive). Moreover, the GI50 with COLO 205 was > 75 µM (inactive); in the assay with MOLT-4, 20 µM (inactive); in the assay with SK-OV-3, > 75 µM (inactive); with OVCAR-5, > 75 µM (inactive); in the assay on NCI-H460, 18.3 µM (inactive); in the assay on SK-MEL-5, > 75 µM (inactive). The GI50 in the assay on SR is 26.2 µM (inactive); with SK-MEL-28 it was > 75 µM (inactive).

For the compound `CCOC(=O)C(Cc1ccc(O)cc1)Nc1nc(=O)c2c(=O)oc(Cl)cc2o1` (stereo not given), the GI50 is 4.33 µM with HCT-15; 10.9 µM (inactive) with UO-31; 6.78 µM (inactive) with OVCAR-3; 4.15 µM (inactive) in the assay with M14; 6.59 µM (inactive) with HCC 2998; 3.17 µM (inactive) in the assay with Malme-3M. Also, the GI50 was 11.4 µM (inactive) in the assay with UACC-62; 16.1 µM (inactive) in the assay on A549; 12.4 µM (inactive) in the assay on EKVX; 2.67 µM (inactive) in the assay on RPMI-8226; 10.2 µM (inactive) in the assay on KM12; 8.93 µM (inactive) in the assay on PC-3. In addition, the GI50 is 8.49 µM (inactive) with COLO 205; 2.81 µM (inactive) in the assay on MOLT-4; 14.4 µM (inactive) with SK-OV-3; 17.8 µM (inactive) in the assay on OVCAR-5; 16.4 µM (inactive) in the assay with NCI-H460; 8.15 µM (inactive) in the assay with SK-MEL-5. Further, the GI50 is 2.7 µM (inactive) in the assay with SR and 4.13 µM (inactive) in the assay with SK-MEL-28.

For `CC1=C2C(=O)c3ccccc3C(=O)[C@H]2[C@H]2CCO[C@H]2O1`, the GI50 in the assay on HCT-15 was 25.6 µM; in the assay with UO-31 it was 18.1 µM (inactive); in the assay on OVCAR-3, 19.1 µM (inactive); in the assay on M14, 20.6 µM (inactive); with HCC 2998 it was 19.4 µM (inactive); in the assay on Malme-3M, 19.1 µM (inactive). For the same compound, the GI50 was 20.4 µM (inactive) in the assay with UACC-62; 32.2 µM (inactive) with A549; 30.5 µM (inactive) with EKVX; 24.4 µM (inactive) in the assay on RPMI-8226; 24.5 µM (inactive) in the assay on KM12; 30.3 µM (inactive) in the assay with PC-3. In addition, the GI50 in the assay with COLO 205 was 42.2 µM (inactive); in the assay with MOLT-4, 30.5 µM (inactive); with SK-OV-3, 50.4 µM (inactive); in the assay on OVCAR-5 it was 23.7 µM (inactive); with NCI-H460 it was 21 µM (inactive); in the assay on SK-MEL-5, 15.6 µM (inactive). For the same compound, the GI50 is 35.2 µM (inactive) with SR and 24.3 µM (inactive) in the assay with SK-MEL-28.

For the compound `C[N+]12C=CC=C1C(N1CCCC1)c1scc(-c3ccc(Br)cc3)c12` (stereo not given), the GI50 with HCT-15 is > 90.8 µM; with UO-31, > 100 µM (inactive); in the assay on OVCAR-3, 6.38 µM (inactive); in the assay on M14 it was 27.7 µM (inactive); in the assay on HCC 2998, 12.4 µM (inactive); in the assay on Malme-3M it was 9.4 µM (inactive). In addition, the GI50 with UACC-62 is 19.2 µM (inactive); in the assay with A549, 74.1 µM (inactive); with EKVX, 20.1 µM (inactive); with RPMI-8226, 3.01 µM (inactive); in the assay on KM12, 12.1 µM (inactive); with PC-3 it was 21 µM (inactive). Further, the GI50 in the assay on COLO 205 was 12.5 µM (inactive); in the assay on MOLT-4, 15.8 µM (inactive); in the assay with SK-OV-3, > 81.7 µM (inactive); in the assay on OVCAR-5, 42.1 µM (inactive); in the assay with NCI-H460, 14.6 µM (inactive); in the assay on SK-MEL-5 it was 4.68 µM (inactive). The GI50 in the assay on SR is 4.81 µM (inactive); with SK-MEL-28, 19 µM (inactive).

Turning to `CNC1Cc2c[nH]c3cccc(c23)C12C=C(C)C(=O)O2` (stereo not given), the 50% growth inhibitory concentration (GI50) in the assay on HCT-15 is > 100 µM; in the assay with UO-31, > 100 µM (inactive); with OVCAR-3, > 100 µM (inactive); with M14, > 100 µM (inactive); with HCC 2998, > 100 µM (inactive); in the assay with Malme-3M, > 100 µM (inactive). The GI50 with UACC-62, in the assay on A549, with EKVX, in the assay with RPMI-8226, with KM12 and with PC-3 was > 100 µM (inactive) throughout. Moreover, the GI50 in the assay with COLO 205, with MOLT-4, in the assay with SK-OV-3, in the assay on OVCAR-5, in the assay with NCI-H460 and with SK-MEL-5 was > 100 µM (inactive) in each case. The GI50 in the assay with SR was 88.5 µM (inactive); in the assay with SK-MEL-28 it was > 100 µM (inactive).

In the case of `Nc1nc(S)c2c(N)n[nH]c2c1C(=O)Nc1ccccc1`, the GI50 with HCT-15 is > 100 µM; with UO-31, > 100 µM (inactive); with OVCAR-3 it was > 100 µM (inactive); in the assay with M14, > 100 µM (inactive); in the assay on HCC 2998 it was > 100 µM (inactive); in the assay with Malme-3M, > 100 µM (inactive). The GI50 in the assay on UACC-62 was > 100 µM (inactive); in the assay with A549, > 100 µM (inactive); in the assay with EKVX it was 26.5 µM (inactive); in the assay with RPMI-8226 it was > 100 µM (inactive); in the assay on KM12, 65.5 µM (inactive); with PC-3 it was > 100 µM (inactive). For the same compound, the GI50 in the assay with COLO 205, in the assay on MOLT-4, in the assay on SK-OV-3, with OVCAR-5, with NCI-H460 and in the assay with SK-MEL-5 was > 100 µM (inactive) in each case. Further, the GI50 in the assay on SR is 13.9 µM (inactive); in the assay on SK-MEL-28, > 100 µM (inactive).

Regarding `O=C1CN(c2ccc(Cl)cc2)C(=O)CN1NCNN1CC(=O)N(c2ccc(Cl)cc2)CC1=O`, the GI50 in the assay with HCT-15 was > 100 µM; with UO-31, > 100 µM (inactive); in the assay with OVCAR-3, > 100 µM (inactive); in the assay with M14, > 100 µM (inactive); with HCC 2998 it was > 100 µM (inactive); with Malme-3M, > 100 µM (inactive). Moreover, the GI50 in the assay with UACC-62, in the assay on A549, with EKVX, with RPMI-8226, in the assay with KM12 and with PC-3 was > 100 µM (inactive) each time. For the same compound, the GI50 with COLO 205, in the assay with MOLT-4, in the assay on SK-OV-3, in the assay with OVCAR-5, in the assay with NCI-H460 and in the assay on SK-MEL-5 was > 100 µM (inactive) in each case. Moreover, the GI50 with SR and in the assay on SK-MEL-28 was > 100 µM (inactive) in each case.

With `O=[N+]([O-])c1ccc(C2=Nn3c(nnc3-c3ccc(Cl)cc3)SC2)o1`, the concentration for 50% growth inhibition (GI50) with HCT-15 is 2.33 µM; with UO-31, 3.5 µM (inactive); in the assay on OVCAR-3, 3.98 µM (inactive); in the assay with M14 it was 5.46 µM (inactive); in the assay with HCC 2998, 2.39 µM (inactive); in the assay on Malme-3M, 6.46 µM (inactive). Besides, the GI50 in the assay on UACC-62 was 11.1 µM (inactive); with A549, 14.3 µM (inactive); in the assay on EKVX, 10.7 µM (inactive); in the assay with RPMI-8226, 2.1 µM (inactive); in the assay on KM12, 7.93 µM (inactive); in the assay with PC-3 it was 5.32 µM (inactive). Besides, the GI50 is 2.05 µM (inactive) in the assay on COLO 205; 3.28 µM (inactive) in the assay with MOLT-4; 19.3 µM (inactive) in the assay on SK-OV-3; 18.3 µM (inactive) with OVCAR-5; 6.75 µM (inactive) in the assay with NCI-H460; 10.8 µM (inactive) with SK-MEL-5. Moreover, the GI50 in the assay with SR was 0.394 µM (active); in the assay on SK-MEL-28, 12.2 µM (inactive).

As to `NC(=O)c1cc(N(CCO)CCO)c([N+](=O)[O-])cc1[N+](=O)[O-]`, the GI50 in the assay with HCT-15 was > 100 µM; in the assay on UO-31, > 100 µM (inactive); in the assay on OVCAR-3 it was > 100 µM (inactive); in the assay on M14 it was > 100 µM (inactive); with HCC 2998, > 100 µM (inactive); in the assay on Malme-3M, > 100 µM (inactive). The GI50 with UACC-62, in the assay on A549, with EKVX, in the assay with RPMI-8226, in the assay on KM12 and with PC-3 was > 100 µM (inactive) each time. Further, the GI50 with COLO 205, with MOLT-4, in the assay on SK-OV-3, in the assay on OVCAR-5, in the assay on NCI-H460 and in the assay on SK-MEL-5 was > 100 µM (inactive) throughout. The GI50 with SR and in the assay with SK-MEL-28 was > 100 µM (inactive) in each case.

For the origin of these results see ChEMBL document CHEMBL1201862, “PubChem BioAssay data set” (2004).
